# According to patent US20110028715A1, “NOVEL ADENINE COMPOUND” (priority 2007, published 2011):
# How the values were obtained:
# [1] = test system: IFN-α; assay: IFN-α production inducing activity in mice (plasma IFN-α by L929/2-5AS-Luc bioassay); assay type: in vivo, B6C3F1 mice; details: 3 hours after 1 mg/kg intravenously via tail vein, mean ± standard deviation (n = 3)
# Experimental: A test compound was administered to B6C3F1 mice (Charles River Japan, Inc.) via tail vein at the dose of 1 mg/kg intravenously. After 3 hours, total blood was collected into a sample tube containing heparin. Plasma was prepared from total blood after centrifugation (3,000 rpm, 10 min, at room temperature) and stored at −20° C.
# Murine fibroblasts (L929/2-5AS-Luc), which constitutively expressed luciferase gene in which the promoter region for 2′-5′-oligoadenylate synthase was cloned, was seeded into 96-well plate at 4×10^4 cells/well, and cultured for overnight with diluted plasma or mouse IFN-α. After Luclite (Perkin Elmer) was added to the plate, the luciferase activity was measured with TopCount (Perkin Elmer).
# The concentration of IFN-α in plasma was calculated by linear regression of logarithmic transformed concentration of mouse IFN-α and the luciferase activity.
# [2] = test system: OV-HM ovarian carcinoma; assay: Antitumor activity: lung metastasis in OV-HM ovarian carcinoma-bearing mouse; assay type: in vivo, B6C3F1 mouse; details: Day 35
# Experimental: OV-HM ovarian carcinoma-bearing B6C3F1 mouse was prepared by intradermally inoculating 1×10^6 viable OV-HM cells in back skin. Tumor was surgically removed ten days after the tumor incubation under isoflurane anesthesia. On Day 11, Day 14, Day 17, Day 20, Day 24, Day 28, and Day 32, a test compound was administered via tail vein at the dose of 1 mg/kg. On Day 35, mouse was euthanized, and lung was collected from the mouse. Metastasized tumor nodules in lung was counted, and the frequency of the metastasized mice was calculated in each group.
structure (smiles),measurement,setting,value
"CCOc1nc(N)c2[nH]c(=O)n(Cc3ccc(CN(C)C)cc3)c2n1 [Example 63, 6-Amino-9-(4-dimethylaminomethylbenzyl)-2-ethoxy-7,9-dihydropurin-8-one]",Mouse IFN-α,[1],25.4 ± 13.9 IU/mL
same,Frequency of metastasis,"[2]; metastasized mice per group, lung, 1 mg/kg via tail vein on Days 11, 14, 17, 20, 24, 28, 32",0/6
same,Number of tumor,"[2]; metastasized tumor nodules in lung, 1 mg/kg via tail vein, **p < 0.01 vs vehicle group (Wilcoxon)",0.0**
